Usually EC50 stands for the concentration giving half of the maximal effect. The term half-life denotes the time in which the quantity being followed falls by half. The low end stands for fast loss, the high end for slow loss.

These results are taken from patent US8415367B2, “Pyrimidinylpiperidinyloxypyridinone analogues as GPR119 modulators” (Bristol-Myers Squibb Company, priority 2010, dated 2013).

Where two headings read alike, the source gives them in different places.

Data set [1] has as its system male C57BL/6J mice. As to the kind of experiment: Mouse oral glucose tolerance test. The format is in vivo. The settings on record: for Minimally efficacious Dose / Glucose Lowering: oral; for Minimally efficacious Dose: given 60 min before glucose load (2 g/kg), oGTT in C57BL/6J mice; for Glucose Lowering: plasma glucose AUC change vs vehicle at the minimally efficacious dose. The protocol:
Mouse Oral Glucose Tolerance Test
Twenty four (24) male C57BL/6J mice (8-10 weeks old, average weight 28 g) were randomized into 4 groups (1 mouse/cage) of 6 mice per group based on fed plasma glucose and body weight. Prior to initiating the study, mice were fasted overnight and the next morning they were weighed and placed in the experimental lab. After 30 min in the environment, the mice were bled via tail tip at −60 min and immediately given their first oral administration of vehicle (40% PEG400, 10% Cremophor EL, 50% water) or compound solutions (5 ml/kg). At time 0 the mice were bled and given 50% glucose (2 g/kg) to initiate the oral glucose tolerance test (oGTT). The mice were bled 30, 60 and 120 min after the glucose load. Blood samples were drawn into potassium EDTA, placed on ice during the study and subsequently centrifuged for 10 min at 3000 rpm at 4° C. Plasma samples were diluted 11-fold for glucose analysis in the COBAS MIRA® System (Roche Diagnostics). Area under the curve was calculated from the plasma glucose time course data using the trapezoid rule with fasting plasma glucose as the baseline (GraphPad Prism Software). The statistical significance of the changes in the glucose AUCs resulting from the different treatments was determined by one-way ANOVA followed by Dunnett's test using the vehicle group as the control (JMP software, release 5.1.2).
Find below in Table 6 data for compared compounds (See WO 2009/012275 A1).

The target of data set [2] is T1, human-mouse chimeric GPR119 (Homo sapiens, UniProt Q8TDV5, A235T/C313R/C323Y/E253K/F304I/F307L/G211A/G245S/H255C/K284R/L224V/L258Q/L288Q/L301F/P218V/P318T/Q252H/R262K/S214P/S219N/S228A/S309P/S322A/T217S/T239S/V227I/V300F).
T1 construct: the first 198 amino acids of human GPR119; the C-terminal 137 amino acids of the mouse receptor; expressed in transfected cells
T1 sequence (Q8TDV5 with tags, fused parts or gaps G211A/S214P/T217S/P218V/S219N/L224V/V227I/S228A/A235T/T239S/G245S/Q252H/E253K/H255C/L258Q/R262K/K284R/L288Q/V300F/L301F/F304I/F307L/S309P/C313R/P318T/S322A/C323Y): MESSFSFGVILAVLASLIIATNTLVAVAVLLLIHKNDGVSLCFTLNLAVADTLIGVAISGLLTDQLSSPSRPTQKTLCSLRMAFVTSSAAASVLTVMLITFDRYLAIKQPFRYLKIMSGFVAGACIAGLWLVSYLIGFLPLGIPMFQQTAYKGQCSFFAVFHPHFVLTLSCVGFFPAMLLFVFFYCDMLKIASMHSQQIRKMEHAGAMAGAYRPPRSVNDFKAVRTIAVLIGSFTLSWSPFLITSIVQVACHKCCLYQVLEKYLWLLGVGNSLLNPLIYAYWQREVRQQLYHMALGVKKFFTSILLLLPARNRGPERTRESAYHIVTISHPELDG
As to the kind of experiment: Tet-inducible cAMP assay (cAMP accumulation, HTRF). The format is cell-based. The protocol:
The in vitro modulation of recombinant human GPR119 was determined as follows.
A human-mouse chimeric GPR119 expression construct encoding 3 copies of the FLAG epitope tag, the first 198 amino acids of human GPR119 and the C-terminal 137 amino acids of the mouse receptor was cloned into a tetracycline inducible vector pcDNA5/FRT/TO (Invitrogen #V6520-20), which includes a hygromycin-resistance marker. Tightly controlled receptor expression was achieved by stable integration of this construct into the genome of a specific host cell line, Flp-In-T-Rex-HEK293, expressing the tetracycline repressor (Invitrogen). Once a stable hygromycin-resistant cell line was generated, the cells were maintained at 37° C. in a humidified 5% CO2 atmosphere in culture medium consisting of Dulbecco's modified Eagle's medium (DMEM; Invitrogen #11960) supplemented with 2 mM L-glutamine, 10% fetal bovine serum, 200 μg/ml hygromycin B, and 15 μg/ml blasticidin.
Forty-eight hours prior to the cAMP accumulation assay, cells stably expressing the chimeric human/mouse GPR119 construct were seeded at a density of 4×10^3 cells/well in 384 well poly-D-lysine coated solid white plates (BD #35-6661) and grown at 37° C. in a humidified 5% CO2 atmosphere in culture medium supplemented with 1 μg/ml tetracycline to induce expression of the receptor. On the day of the assay, medium was removed and cells were incubated for 50 min. at 37° C. in a humidified 5% CO2 atmosphere in 20 μl/well of assay buffer (phosphate-buffered saline with Ca^2+ and Mg^2+, 12 mM glucose, 0.1 mM isobutyl-methyl-xanthine, 0.1% fatty-acid free bovine serum albumin) with the desired concentration of compound added from a concentrated stock dissolved in dimethyl sulfoxide (DMSO) to give a final concentration of 1% DMSO in the assay. cAMP accumulation was measured using the CisBio homogeneous time resolved fluorescence (HTRF) assay kit (#62AM2PEC) following the manufacturer's protocol. Briefly, 10 μl each of the cAMP-HTRF fluorescence detection reagents were added to each well, and the samples were incubated for 40 min. at room temperature. Fluorescence was excited at 320 nm and measured at 665 and 620 nm using the Envision instrument (Perkin Elmer), the fluorescence ratio of 665/620 was calculated and converted to nanomolar concentrations of cAMP in each well by interpolation from a cAMP standard curve. The concentration-response curves and EC50 values were calculated with a four parameter logistic curve fit equation utilizing Excel/XLfit software (Microsoft and IDBS). The EC50 value was calculated as the concentration of agonist which increased the cAMP concentration to a value halfway between the baseline and the maximum.
Compounds of the present invention were tested in the Tet-inducible cAMP assay described immediately above and the results shown in Table 5 below were obtained.
A general note: cAMP levels reflect the balance of adenylyl cyclase and phosphodiesterase activity.

The nature of data set [3]: in vitro. The settings on record: human, microsomes, pH 7.4.
Protocol: (§1) Metabolic Stability in Liver Microsomes Test
(§2) Human liver microsomes were purchased from BD-Biosciences (Woburn, Mass.). The test compound was received as a 3.5 mM stock solution in 100 percent dimethyl sulfoxide (“DMSO”, Sigma Aldritch). […] The test compound, β-nicotinamide adenine dinucleotide phosphate (“NADPH”, AppliChem Inc.) and liver microsome solutions are combined for incubation in three steps:
(§3) 1) 450 μl of liver microsome suspension, protein concentration of 1.1 mg/ml in 100 mM sodium (+)/phosphate (“NaPi”, pH 7.4, Sigma Aldritch) buffer, 5 mM magnesium chloride (“MgCl2, Sigma Aldritch) buffer, is pre-warmed at 37° C.;
(§4) 3) The reaction is initiated by the addition of 50 μl of pre-warmed 10 mM NADPH solution in 100 mM NaPi, pH 7.4.
(§5) Reaction components are mixed well and then 65 μl are immediately transferred into 130 μl of quench/stop solution (zero-time point, T0). […] ACN containing Internal Standard (100 ng/ml), is used as the quench solution to terminate metabolic reactions. The quenched mixtures are centrifuged at 1500 rpm (˜500×g) in an Allegra X-12 centrifuge, SX4750 rotor (Beckman Coulter Inc., Fullerton, Calif.) for fifteen minutes to pellet denatured microsomes. A volume of 90 μl of supernatant extract, containing the mixture of parent compound and its metabolites, is then transferred to a separate 96-well plate for LC/MS-MS analysis to determine the percent of parent compound that is remaining in the mixture. Peak integration is performed on all samples using the Hepatic Clearance Calculator of QuickCalc by Gubbs, Inc. The percent remaining calculation is performed by comparing the LC-MS/MS peak areas from the samples at each time point to those from the T0 samples for each compound.
Data set [4] is described as follows: Metabolic stability in liver microsomes test. The settings on record: human, pH 7.4. (In general: Microsomes from liver hold many membrane-bound enzymes, among them those of drug oxidation.)
Protocol: as §1, §2, §3, §4, §5
Setting [5] is: Flp-In-T-Rex-HEK293 cells expressing chimeric human/mouse GPR119, cAMP accumulation, read-out: GPR119 EC50.

As to `CS(=O)(=O)c1ccc(-n2cc(Cl)c(OC3CCN(c4ncc(C(F)(F)F)cn4)CC3)cc2=O)cc1` [Example 1, 5-Chloro-1-(4-(methylsulfonyl)phenyl)-4-(1-(5-(trifluoromethyl)pyrimidin-2-yl)piperidin-4-yloxy)pyridin-2(1H)-one], the reduction in glucose in data set [1] (at the stated dose (0.1 mg/kg Example 1; 0.3 mg/kg Example 224 of WO 2009/012275 A1)) stood at 24%. In addition, in data set [1], the “Minimally efficacious Dose” value amounted to 0.1 mg/kg and the “Glucose Lowering” value is −24%. In addition, a half-maximal effect in data set [2] (EC50) was put at 8 nM. In addition, the half-life at 0.5 µM in data set [3] came to 3 h.
In the case of `CS(=O)(=O)c1ccc(-n2cc(Cl)c(OC3CCN(c4ncc(C(F)(F)F)cn4)CC3)cc2=O)c(F)c1` [Example 2, 5-Chloro-1-(2-fluoro-4-(methylsulfonyl)phenyl)-4-(1-(5-(trifluoromethyl)pyrimidin-2-yl)piperidin-4-yloxy)pyridin-2 (1H)-one], in data set [1], the “Minimally efficacious Dose” value is given as 0.1 mg/kg and the “Glucose Lowering” value is −29%. The molecule also showed an EC50 in data set [2] of 12 nM. This molecule yielded a half-life at 0.5 µM in data set [3] of 2.45 h.
For `CS(=O)(=O)c1ccc(-n2cc(Cl)c(OC3CCN(c4ncc(C(F)(F)F)cn4)CC3)cc2=O)cc1F` [Example 3, 5-Chloro-1-(3-fluoro-4-(methylsulfonyl)phenyl)-4-(1-(5-(trifluoromethyl)pyrimidin-2-yl)piperidin-4-yloxy)pyridin-2(1H)-one] the same measures were 0.1 mg/kg, −28%, 7 nM and 1.8 h.
Turning to `CS(=O)(=O)c1ccc(-n2cc(Cl)c(OC3CCN(c4ncc(Cl)cn4)CC3)cc2=O)cc1` [Example 4, 5-Chloro-4-(1-(5-chloropyrimidin-2-yl)piperidin-4-yloxy)-1-(4-(methylsulfonyl)phenyl)pyridin-2(1H)-one], in data set [1], the “Minimally efficacious Dose” value is given as 0.03 mg/kg and the “Glucose Lowering” value is given as −24%. Further, the half-life at 0.5 µM in data set [4] came out at 0.95 h. In data set [2], this molecule registered an EC50 of 5 nM.
On to `CS(=O)(=O)c1ccc(-n2cc(Cl)c(OC3CCN(c4ncc(Cl)cn4)CC3)cc2=O)c(F)c1` [Example 5, 5-Chloro-4-(1-(5-chloropyrimidin-2-yl)piperidin-4-yloxy)-1-(2-fluoro-4-(methylsulfonyl)phenyl)pyridin-2(1H)-one], for which, in data set [1], the “Minimally efficacious Dose” value came out at 0.06 mg/kg and the “Glucose Lowering” value is listed as −29%. The molecule further registered an EC50 in data set [2] of 3 nM. In data set [3], this molecule gave a half-life at 0.5 µM of 1.75 h.
On to `CS(=O)(=O)c1ccc(-n2cc(Cl)c(OC3CCN(c4ncc(Cl)cn4)CC3)cc2=O)cc1F` [Example 6, 5-Chloro-4-(1-(5-chloropyrimidin-2-yl)piperidin-4-yloxy)-1-(3-fluoro-4-(methylsulfonyl)phenyl)pyridin-2(1H)-one], for which, in data set [1], the “Minimally efficacious Dose” value is listed as 0.1 mg/kg and the “Glucose Lowering” value is on record as −36%. The half-life at 0.5 µM in data set [4] is 0.65 h. For the same molecule, in data set [2], a half-maximal effect (EC50) was put at 4 nM.
Regarding `CCS(=O)(=O)c1ccc(-n2cc(Cl)c(OC3CCN(c4ncc(C(F)(F)F)cn4)CC3)cc2=O)c(F)c1` [Example 8, 5-Chloro-1-(4-(ethylsulfonyl)-2-fluorophenyl)-4-(1-(5-(trifluoromethyl)pyrimidin-2-yl)piperidin-4-yloxy)pyridin-2(1H)-one], in data set [1], the “Minimally efficacious Dose” value is 0.03 mg/kg and the “Glucose Lowering” value was −26%. The EC50 in data set [2] (setting [5]) is 8 nM. In data set [3], this molecule returned a half-life at 0.5 µM of 2 h.
Turning to `CCS(=O)(=O)c1ccc(-n2cc(Cl)c(OC3CCN(c4ncc(C(F)(F)F)cn4)CC3)cc2=O)cc1F` [Example 9, 5-Chloro-1-(4-(ethylsulfonyl)-3-fluorophenyl)-4-(1-(5-(trifluoromethyl)pyrimidin-2-yl)piperidin-4-yloxy)pyridin-2(1H)-one], the EC50 in data set [2] (setting [5]) came out at 13 nM. The molecule also registered a half-life at 0.5 µM in data set [3] of 1.47 h.
For `CCS(=O)(=O)c1ccc(-n2cc(Cl)c(OC3CCN(c4ncc(Cl)cn4)CC3)cc2=O)cc1` [Example 10, 5-Chloro-4-(1-(5-chloropyrimidin-2-yl)piperidin-4-yloxy)-1-(4-(ethylsulfonyl)phenyl)pyridin-2(1H)-one] the same measures were 2 nM and 0.583 h.
For `CCS(=O)(=O)c1ccc(-n2cc(Cl)c(OC3CCN(c4ncc(Cl)cn4)CC3)cc2=O)c(F)c1` [Example 11, 5-Chloro-4-(1-(5-chloropyrimidin-2-yl)piperidin-4-yloxy)-1-(4-(ethylsulfonyl)-2-fluorophenyl)pyridin-2(1H)-one] the same measures were 6 nM and 0.85 h.
